Data on one compound can be found in patent publication US20130052162A1, “BOOSTING IMMUNE DEFENSE BY UPREGULATING CCAAT/ENHANCER BINDING PROTEIN EPSILON” (CEDARS-SINAI MEDICAL CENTER, priority 2010, published 2013).

Where “and” joins values, the source holds several entries; their conditions need not be identical. Equal entries are not always repeated. Entries after “also recorded” stand apart in the source; their conditions may differ.

Data set [1] deals with S. aureus. Put plainly: Murine systemic (i.p.) S. aureus infection. Format: in vivo, mouse. To be noted: 250 mg/kg i.p. daily from 24 h before infection, 48 h p.i. As for the experimental part: Following euthanization of mice on the specified day, infected skin lesion tissue was aseptically excised, and thoroughly homogenized and mixed in 1 mL of PBS as previously shown^43. Ten-fold serial dilutions of the homogenates were plated on THA for CFU determination. The spleen and both kidneys were aseptically removed from each animal and processed in the same way. When required, the appropriate homogenized suspensions (skin lesions) were centrifuged at 15,000 g for 10 min and supernatants stored at −80° C. for subsequent analysis by ELISA.
Mice were systemically infected by intraperitoneal (i.p.) injection of 1×10^7 CFU/mL S. aureus for 48 h. Following euthanasia, the spleen and both kidneys were removed for CFU determination.

Data set [2] is described as follows: Ex vivo hematological study (CBC) of human donor blood. Particulars: 1 mM NAM ex vivo. Format: cell-based. As for the experimental part: Blood from human donors (no antibiotics within the prior 2 weeks, no immune-boosting supplements, and otherwise healthy) was collected in ETDA tubes. CBC was performed on each blood sample at time zero. Each blood sample was then treated ex vivo with NAM (1 mM) or PBS (control) for 24 h in 6-well non-treated plates at 37 C, 5% CO2 and 95%% humidity with gentle rocking. After 24 h of treatment, CBCs were performed on each blood sample. […] (Table 3)

The test system of data set [3] is S. aureus. Put plainly: Human peripheral whole blood killing assay, S. aureus. The class given is cell-based.
The test system of data set [4] is S. aureus. Put plainly: Murine peripheral whole blood killing assay. The class given is cell-based, mouse.
The test system of another data set is LF-promoter. Put plainly: LF reporter gene (LAC-LUC) luciferase assay in U937 cells. The class given is cell-based, human. Particulars: 1 mM NAM, 16 h, vs PBS. How it is done:
The inventors designed a −230 LF promoter reporter plasmid (LAC-LUC) including a C/EBP-binding site as previously described^15. For the reporter gene assay, 2×10^6 […] cells were transiently transfected either with 2 μg of the LAC-LUC luciferase reporter gene constructs or the empty-vector control (pGL3, Promega, Madison, Wis., USA), as well as 0.2 μg of Renilla luciferase (pRL-SV40). Transfections were performed using the nucleofection technique with the Amaxa-Kit (Invitrogen, Karlsruhe, Germany) according to the manufacturer's instructions. After 16 h of transfection, the cells were treated with NAM (1 mM) for an additional 16 h. The lysates were harvested and luciferase activity measured by the Dual-Luciferase reporter assay system (Promega, Madison, Wis., USA). For all transfection studies, luciferase activity was normalized using pRL-SV40 activity. Results represent the mean of three independent experiments performed in triplicate.
(A reporter such as luciferase makes a cellular process visible.)

The subject of data set [5] is CEBPE promoter region. Put plainly: ChIP: histone H3 acetylation at CEBPE promoter in BMMC. Format: cell-based, mouse. To be noted: WT BMMC, 1 mM NAM, 12 h, vs untreated. How it is done:
(§1) ChIP assay kit (Upstate Biotechnology, Lake Placid, N.Y.) was used, and chromatin was prepared for IP as instructed by the manufacturer. The sonicated chromatin was immunoprecipitated with either 5 μg of anti-acetylated histone H3 antibody or normal rabbit IgG antibody as negative control (Upstate Biotechnology). Immunoprecipitated DNA was subsequently analyzed by PCR using primers specific for the CEBPE promoter region; input chromatin was analyzed for β-actin mRNA as a positive control. The optimal reaction conditions for PCR were determined for each primer pair. Primers were denatured at 95° C. for 1 min and annealed at 60° C. for 1 min, followed by elongation at 72° C. for 1 min; each product was amplified 35 cycles. PCR products were analyzed by 2.5% agarose/ethidium bromide gel electrophoresis. […] The primers used for ChIP analysis were: human CEBPE 5′-GCTTTGGCCAAGCCCAGGGA-3′ (forward) (SEQ ID NO: 9), 5′-TGCTGGGCTCCACCTACCCC-3′ (reverse) (SEQ ID NO: 10); human β-actin: 5′-CTCCTCGGGAGCCACACGCA-3′ (forward) (SEQ ID NO: 1), 5′-TAGGGGAGCTGGCTGGGTGG-3′ (reverse) (SEQ ID NO: 12); murine CEBPE: 5′-TGAGGCTGCAGCTTGCCTGG-3′ (forward) (SEQ ID NO: 13), 5′-ACCAAGCTACCCCTGGCCCT-3′ (reverse) (SEQ ID NO: 14), murine β-actin: 5′-ACCTGTTACTTTGGGAGTGGCAAGC-3′ (forward) (SEQ ID NO: 15), 5′-GTCGTCCCAGTTGCTAACAATGCC-3′ (reverse) (SEQ ID NO: 16).

For data set [6] the following is noted: human trials, patients undergoing radiotherapy; cited from earlier work.
In the next data set the test system is K. pneumoniae. Nature of the data set: Human peripheral whole blood killing assay, K. pneumoniae. Format: cell-based. Particulars: NAM-pretreated human blood, 3 h of infection. As for the experimental part: (§2) This well described phagocytic survival assay has been previously reported^42. Bacteria was pelleted, washed twice, diluted to the specified inoculum in 25 μl PBS (without Ca^2+ and Mg^2+), and immediately mixed with 75 μl of freshly drawn human or murine peripheral whole blood in sterile heparinized 2 mL round-bottom Eppendorf tubes. When required, murine plasma was obtained by centrifugation of heparinized whole blood at 2000×g for 15 min at RT. Reactions (performed in minimum in triplicate) were incubated at 37° C. for 1-3 h on a rotary shaker, at which time ten-fold serial dilutions were plated on THA for enumeration of surviving CFU.
(§3) When required, freshly drawn human or murine peripheral blood was pretreated with NAM (˜0.1 mM or ˜10 mM) or PBS (without Ca^2+ and Mg^2+), prior to inoculation with bacteria.
(§4) Participants in the inventors' study included 15 healthy humans with a negative history of infection or antibiotic treatments in the prior 4 weeks. Peripheral blood was collected from individuals in a fasting condition. Polymorph-prep (Axis-Shield, Oslo, Norway) was used for the isolation of PMNs according to the manufacturer's protocol.

Data set [7] has as its system CEBPE promoter region. Put plainly: ChIP: histone H3 acetylation at CEBPE promoter in BMDM. To be noted: WT BMDM, 1 mM NAM, 6-12 h, vs untreated, densitometry. The class given is cell-based, mouse. As for the experimental part:
as §1

The test system of a further data set is P. aeruginosa. Put plainly: Human peripheral whole blood killing assay, P. aeruginosa. Format: cell-based. To be noted: NAM-pretreated human blood. How it is done: as §2, §3, §4
Setting [8] is: t = 24 h, individual human donors #1-5.

Consider `NC(=O)c1cccnc1` [NAM, Nicotinamide], for which the “bacterial CFU recovered from spleens and kidneys vs PBS” value in the data set on S. aureus [1] (C/EBPε−/− mice) was “no impact”. Further, in the data set with S. aureus [1] (WT mice), the “lower S. aureus CFU in spleens and kidneys vs PBS” value was “approximately 2 logic”. Moreover, the “CBCs, NAM- vs PBS-treated and untreated blood” value in data set [2] (24 h) is on record as “No differences in CBCs”. Moreover, in [2] (setting [8]), the “ABS MONOS” value is 0.6 1000/UL and 0.5 1000/UL and 0.2 1000/UL and 0.1 1000/UL (2×); the “ABS POLYS” value was 5.4 1000/UL and 2.9 1000/UL and 5.2 1000/UL and 4.2 1000/UL and 4.3 1000/UL; the MONOS was 7% and 9% and 4% and 2% (2×); the POLYS is 61% and 51% and 76% and 63% and 70%. In addition, in [2] (setting [8]), the “WBC COUNT” value is 8.9 1000/UL and 5.6 1000/UL and 6.9 1000/UL and 6.7 1000/UL and 6.1 1000/UL. In the data set on S. aureus [3] (NAM 1 mM or 10 mM 24 h, 1 h and 3 h of infection), the “CFU recovered, NAM- vs PBS-treated blood” value is listed as “Significantly less CFU”. In addition, in the data set with S. aureus [3] (NAM 1 mM or 10 mM 24 h pretreatment, 3 h p.i.), the “reduction of S. aureus survival in whole blood vs PBS” value is recorded as 2-3 log10. Also, the “CFU recovered, NAM- vs PBS-treated blood” value in the data set with S. aureus [4] (C/EBPε−/− blood, 1 mM NAM 24 h, 1 h and 3 h of infection) is “no impact; also recorded: not statistically different”. In the data set on S. aureus [4] (WT blood, 1 mM NAM 24 h, 1 h and 3 h of infection), the “CFU recovered, NAM- vs PBS-treated blood” value is “Significantly less CFU”. For the same compound, the “enhanced killing of S. aureus vs PBS” value in the data set on S. aureus [4] (WT blood, 1 mM NAM pretreatment 24 h) is “more than 3 log10”. Further, in the data set on S. aureus [4] (WT blood, 1 mM NAM pretreatment for only 4 h), the “CFU recovered, NAM- vs PBS-treated blood” value is listed as “did not result in CFU differences”. Further, in the data set on LF-promoter, the “increase in LF reporter gene activity” value was found to be 2.5 fold. Further, the “increase in histone acetylation at the CEBPE promoter” value with CEBPE promoter region [5] came to 3 fold. In addition, the “plasma concentration routinely achieved” value in data set [6] is 1000 µM. For the same compound, the “K. pneumoniae CFU recovered / outcome, NAM- vs PBS-treated blood” value in the data set on K. pneumoniae is “improved the outcome of infection; also recorded: Significantly less CFU”. For the same compound, the “increase in histone H3 acetylation at the CEBPE promoter” value with CEBPE promoter region [7] was found to be 5 fold. In the data set on P. aeruginosa, the “P. aeruginosa CFU recovered / outcome, NAM- vs PBS-treated blood” value was “improved the outcome of infection; also recorded: enhances clearance”.
